In patent publication US20190290182A1, “METHOD OF DIAGNOSTIC RELEVANCE BASED ON TASTE RECOGNITION” (RANVIER HEALTH LIMITED, priority 2016, published 2019):
Entries after “also recorded” stand apart in the source; their conditions may differ.

Experiments:
healthy volunteers = details: healthy individuals; acute dose; two hours after administration; cited from earlier work
[1] = tested on: individuals with untreated clinical depression; assay: Taste recognition thresholds before and two hours after acute paroxetine (SSRI) challenge; assay type: in vivo, human
Method: Taste responses to sweet, salt, bitter and sour stimuli were then determined. Individuals were informed of which taste modality (sweet, bitter, salt, sour) they were receiving but were given no indication of whether the tester thought they would be able to recognise the taste or not.
The taste modalities were applied in solution to the tip of the tongue, using a cotton bud saturated with the solution at room temperature and placed on the tongue for approximately 5 seconds. Without closing their mouth the subject was asked to indicate whether or not they could taste the stimulus at that concentration. Between each stimulus application a 20 second inter-stimulus interval was adhered to during which the subject would rinse their mouth with approximately 25 ml of deionized water.
Each concentration of stimulus was presented to the subject five times in total, and the percentage of positive responses at each concentration determined. Subjects were first presented with a solution above threshold and thereafter, stimuli were presented in a pseudorandom order in concentrations representing ¼ log steps between the lowest (undetectable, 0% detection) to the highest (always detectable, 100% detection) concentrations, with each concentration being presented 5 times.
The range of concentrations for each taste modality was different, as detailed below: • Sweet (1M-300 μM sucrose) • Bitter (300 μM-0.3 μM quinine hydrochloride) • Salt (1M-0.2 mM NaCl) • Sour (100 mM-0.56 mM citric acid; C6H8O7).
Taste psychometric functions before and after paroxetine administration were also determined for all the individuals with previously untreated depression. From these curves, taste recognition thresholds (the concentration at which the subject would recognize the taste 50% of the time) were calculated before and after challenge in order to determine the degree of change in taste recognition that occurred (Heath et al., (2006) Journal of Neuroscience 26(49): 12664-71).
Taste recognition thresholds were determined by testing a solution of a taste modality (sweet, salt, sour, bitter) on the tip of the tongue, and the subject confirmed whether or not they recognised the taste. Referring to FIG. 3, a curve was then constructed of the number of correct identifications against the concentration of the taste in the solution. The taste recognition threshold was calculated from the curve as the concentration at which the subject would correctly identify the taste 50% of the time (Heath, Melichar, Nutt & Donaldson (2006) Journal of Neuroscience 26(49): 12664-71). […]
Patients referred to a depression clinic in Hyderabad, India were screened and recruited to the study. They had their taste recognition threshold assessed before and two hours after taking an antidepressant (Paroxetine, SSRI). […]

Row | Structure (SMILES) | bitter and sweet taste thresholds (healthy volunteers) | post-challenge taste recognition thresholds versus healthy controls ([1]; all taste modalities, controls without challenge) | post-challenge taste recognition thresholds versus pre-challenge values (statistical significance) ([1]; salt, sweet, sour and bitter, Kruskal Wallis, post-hoc Dunn's tests) | taste recognition thresholds after acute challenge compared with baseline ([1]; salt, sweet, sour and bitter, paroxetine 20 mg, two hours after challenge, n=47) | effect on depressive symptoms ([1]; two hours after acute challenge) | bitter and sour thresholds (healthy volunteers)
1 | Fc1ccc([C@@H]2CCNC[C@H]2COc2ccc3c(c2)OCO3)cc1 [paroxetine] | significantly reduced | significantly higher | not significantly different | reduced; also recorded: generally become lower | lack of immediate effect | 
2 | CCOc1ccccc1OC(c1ccccc1)C1CNCCO1 (stereo not drawn) [reboxetine] |  |  |  |  |  | significantly reduced
